Structures can show the parent of a compound that is named as a salt. Where two headings read alike, the source gives them in different places.
Assays:
HEK293T cells = assay: CellTiter-Glo 2.0 cell viability assay; format: cell-based; settings: for decrease in cell viability at AC1/CaM IC50: at AC1/CaM NanoBiT IC50;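 on all read-outs here: luminescence read-out after 30 min compound exposure at 37 °C in HEPES-buffered HBSS, scaled to vehicle-treated cells as 100% and cell-free buffer wells as 0%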
[1] = CellTiter-Glo 2.0 cell viability assay; format: cell-based; settings: human, HEK293T cells, pH 7.4; for viability at 30 min: at the compound's AC1/CaM NanoBiT IC50 concentration, read-out: % Viable Cells at AC1 IC50;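 on all read-outs here: luminescence read-out after 30 min compound exposure at 37 °C in HEPES-buffered HBSS, scaled to vehicle-treated cells as 100% and cell-free buffer wells as 0%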
AC8-C2b/CaM = biological target: T1, AC8-C2b/CaM (Homo sapiens, UniProt P0DP23); assay: AC8-C2b/CaM FP counterscreen assay; format: binding; settings: for Ki ratio (AC8-C2b/AC1): ratio >1: more potent in AC1/CaM FP;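 on all read-outs here: fluorescence polarization of AC peptide binding to GST-CaM in HEPES buffer with KCl and 50 µM CaCl2, compound preincubated 30 min with GST-CaM, DMSO and calmidazolium as controls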
T1 construct: made in house; host or cells: E. coli BL21-CodonPlus (DE3)-RIPL

AC8-Nt/CaM = biological target: T2, AC8-Nt/CaM (Homo sapiens, UniProt P0DP23); assay: AC8-Nt/CaM FP counterscreen assay; format: binding; settings: for Ki ratio (AC8 NT/AC1): ratio >1: more potent in AC1/CaM FP;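 on all read-outs here: fluorescence polarization of AC peptide binding GST-CaM in HEPES buffer with CaCl2, compound preincubated with CaM 30 min, peptide read after 2 h at room temperature in dark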
T2 construct: made in house; host or cells: E. coli BL21-CodonPlus (DE3)-RIPL

AC1/CaM PPI = biological target: T3, AC1/CaM PPI (Homo sapiens, UniProt P0DP23); assay: AC1/CaM NanoBiT assay in HEK293T cells; format: cell-based; settings: HEK293T, thapsigargin-stimulated, AUC; read-out: Nanobit: AC1-CaM IC50 (μM ± SEM)
T3 construct: human AC1 (hAC1) residues 1–1,118 were cloned; The hCaM residues 1–149, residues 1–1,248 of rat AC8 (rAC8); expressed in transfected cells; host or cells: HEK293T, transient transfection

AC1-C1b/CaM = biological target: T4, AC1-C1b/CaM (Homo sapiens, UniProt P0DP23); assay: AC1-C1b/CaM fluorescence polarization (FP) assay; format: binding; settings: for IC50: 100 nM AC1-C1b, 100 nM GST-CaM, 95% CI in brackets; for Ki: Cheng-Prusoff from FP IC50 and Kd; for AC1-CaM FP % inhib: relative to 100 μM CDZ (100% inhibition), highest concentration tested
T4 construct: made in house; host or cells: E. coli BL21-CodonPlus (DE3)-RIPL

AC8/CaM PPI = biological target: T5, AC8/CaM PPI (Homo sapiens, UniProt P0DP23); assay: AC8/CaM NanoBiT assay in HEK293T cells; format: cell-based, rat; settings: for IC50: HEK293T, thapsigargin-stimulated, AUC, read-out: Nanobit: AC8-CaM IC50 (μM ± SEM)
T5 construct: confirmed as an AC1/AC8 non-selective hit against full-length AC1- and AC8-CaM in the NanoBiT assay; The hCaM residues 1–149, residues 1–1,248 of rat AC8 (rAC8); expressed in transfected cells; host or cells: HEK293T, transient transfection

AC1 = biological target: T6, AC1 (Homo sapiens, UniProt Q08828); assay: cAMP accumulation assay, AC1-HEK Δ3/6 KO cells; format: cell-based
T6 construct: expressed in transfected cells
T6 sequence (Q08828 whole entry): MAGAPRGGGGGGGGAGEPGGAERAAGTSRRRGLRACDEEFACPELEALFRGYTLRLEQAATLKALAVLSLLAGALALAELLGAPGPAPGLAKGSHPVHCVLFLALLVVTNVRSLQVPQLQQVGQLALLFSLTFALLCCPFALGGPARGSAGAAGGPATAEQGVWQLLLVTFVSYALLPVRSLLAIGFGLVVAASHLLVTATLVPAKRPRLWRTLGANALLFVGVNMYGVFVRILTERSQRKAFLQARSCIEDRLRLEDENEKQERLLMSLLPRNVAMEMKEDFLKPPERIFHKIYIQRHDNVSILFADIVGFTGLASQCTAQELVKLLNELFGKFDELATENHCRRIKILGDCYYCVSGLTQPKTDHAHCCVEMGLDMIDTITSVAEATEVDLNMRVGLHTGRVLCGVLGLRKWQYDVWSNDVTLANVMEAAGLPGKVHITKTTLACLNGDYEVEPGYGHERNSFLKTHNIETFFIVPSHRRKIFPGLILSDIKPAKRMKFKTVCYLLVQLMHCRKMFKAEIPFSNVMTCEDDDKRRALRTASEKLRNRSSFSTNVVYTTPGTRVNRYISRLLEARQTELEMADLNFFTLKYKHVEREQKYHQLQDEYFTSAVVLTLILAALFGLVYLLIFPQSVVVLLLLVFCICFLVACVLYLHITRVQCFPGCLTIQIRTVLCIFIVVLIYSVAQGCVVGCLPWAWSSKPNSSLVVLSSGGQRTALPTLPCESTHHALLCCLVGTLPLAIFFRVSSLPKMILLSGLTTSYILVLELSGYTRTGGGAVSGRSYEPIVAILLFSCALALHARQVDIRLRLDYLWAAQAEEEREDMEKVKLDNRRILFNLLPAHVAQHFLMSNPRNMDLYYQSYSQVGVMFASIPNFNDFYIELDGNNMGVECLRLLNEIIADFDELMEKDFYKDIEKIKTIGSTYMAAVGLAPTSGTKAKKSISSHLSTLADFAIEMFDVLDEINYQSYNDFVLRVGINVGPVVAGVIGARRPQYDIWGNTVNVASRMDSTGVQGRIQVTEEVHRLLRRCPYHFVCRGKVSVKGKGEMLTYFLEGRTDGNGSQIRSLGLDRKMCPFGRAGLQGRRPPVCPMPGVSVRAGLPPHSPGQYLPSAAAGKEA
Experimental: Cells were then incubated for 1 h at 37°C and 5% CO2. Cells were then treated with varying concentrations of inhibitors for 30 min, followed by treatment with calcium ionophore A23187 (3 μM) in 500 μM 3-isobutyl-1-methylxanthine (IBMX), a phosphodiesterase inhibitor, for 1 h at RT (Sigma Aldrich, St. Louis, MO). Finally, Cisbio HTRF detection reagents were added and incubated for 1–24 h at RT. Plates were read according to manufacturer’s protocol on an HTRF-compatible plate reader at 620 and 665 nm cAMP concentrations were interpolated from a cAMP standard curve. […] For cytotoxicity assays, compounds were tested at 30 μM and this protocol was used with the exception of detection reagents; CellTiter-Glo 2.0 reagent was used according to manufacturer’s protocol and luminescence was read on the Synergy Neo2 plate reader. Data are normalized to cells treated with vehicle (100%) or 2% tween (0%) and are represented as the percent of vehicle, from the average of three independent experiments (N = 3).

CaM = biological target: T7, CaM (Homo sapiens, UniProt P0DP23); assay: 1H-15N HSQC NMR of 15N-CaM with compound; format: binding; settings: 5 equivalent molar excess over 100 μM CaM
T7 construct: 6X-His-GST (N, cleaved yes); made in house; host or cells: E. coli BL21-CodonPlus (DE3)-RIPL in M9 minimal media with 15NH4Cl
Experimental: All NMR samples contained 100 μM ^15N-CaM in 20 mM HEPES pH 7.4, 100 mM KCl, 10 mM CaCl2, 10% D2O, and 5% DMSO. Initial spectra were collected for CaM alone before individual compounds were titrated to observe chemical shift perturbations. All spectra were acquired at 298 K using a 600 MHz Bruker Avance NEO NMR spectrometer with a triple resonance gradient cryoprobe. NMR spectra were processed using NMRPipe and analyzed using NMRFAM-SPARKY.

[2] = Cytotoxicity assay (CellTiter-Glo 2.0) in AC1-HEK Δ3/6 KO cells; format: cell-based; settings: human, percent of vehicle, read-out: % Viable Cells at AC1 30 μM
Experimental: (§1) Cryopreserved HEK293 cells with AC3 and AC6 knocked out, and stably expressing AC1, AC2, AC5, or AC8 (AC1-HEK Δ3/6 KO, AC2-HEK Δ3/6 KO, AC5-HEK Δ3/6 KO, or AC8-HEK Δ3/6 KO cells, respectively; [Soto-Velasquez et al., 2018]) were plated at 5,000 cells/well. Cells were then incubated for 1 h at 37°C and 5% CO2. Cells were then treated with varying concentrations of inhibitors for 30 min, followed by treatment with calcium ionophore A23187 (3 μM) in 500 μM 3-isobutyl-1-methylxanthine (IBMX), a phosphodiesterase inhibitor, for 1 h at RT (Sigma Aldrich, St. Louis, MO). Finally, Cisbio HTRF detection reagents were added and incubated for 1–24 h at RT. Plates were read according to manufacturer’s protocol on an HTRF-compatible plate reader at 620 and 665 nm cAMP concentrations were interpolated from a cAMP standard curve. […] For cytotoxicity assays, compounds were tested at 30 μM and this protocol was used with the exception of detection reagents; CellTiter-Glo 2.0 reagent was used according to manufacturer’s protocol and luminescence was read on the Synergy Neo2 plate reader. Data are normalized to cells treated with vehicle (100%) or 2% tween (0%) and are represented as the percent of vehicle, from the average of three independent experiments (N = 3).

AC8 = biological target: T8, AC8 (Homo sapiens, UniProt P40145); assay: cAMP accumulation assay, AC8-HEK Δ3/6 KO cells; format: cell-based; settings: for IC50: CDI analog SAR set, 3 μM A23187, read-out: IC50 (μM) ± SEM AC8
T8 construct: expressed in transfected cells
T8 sequence (P40145 whole entry, species assumed): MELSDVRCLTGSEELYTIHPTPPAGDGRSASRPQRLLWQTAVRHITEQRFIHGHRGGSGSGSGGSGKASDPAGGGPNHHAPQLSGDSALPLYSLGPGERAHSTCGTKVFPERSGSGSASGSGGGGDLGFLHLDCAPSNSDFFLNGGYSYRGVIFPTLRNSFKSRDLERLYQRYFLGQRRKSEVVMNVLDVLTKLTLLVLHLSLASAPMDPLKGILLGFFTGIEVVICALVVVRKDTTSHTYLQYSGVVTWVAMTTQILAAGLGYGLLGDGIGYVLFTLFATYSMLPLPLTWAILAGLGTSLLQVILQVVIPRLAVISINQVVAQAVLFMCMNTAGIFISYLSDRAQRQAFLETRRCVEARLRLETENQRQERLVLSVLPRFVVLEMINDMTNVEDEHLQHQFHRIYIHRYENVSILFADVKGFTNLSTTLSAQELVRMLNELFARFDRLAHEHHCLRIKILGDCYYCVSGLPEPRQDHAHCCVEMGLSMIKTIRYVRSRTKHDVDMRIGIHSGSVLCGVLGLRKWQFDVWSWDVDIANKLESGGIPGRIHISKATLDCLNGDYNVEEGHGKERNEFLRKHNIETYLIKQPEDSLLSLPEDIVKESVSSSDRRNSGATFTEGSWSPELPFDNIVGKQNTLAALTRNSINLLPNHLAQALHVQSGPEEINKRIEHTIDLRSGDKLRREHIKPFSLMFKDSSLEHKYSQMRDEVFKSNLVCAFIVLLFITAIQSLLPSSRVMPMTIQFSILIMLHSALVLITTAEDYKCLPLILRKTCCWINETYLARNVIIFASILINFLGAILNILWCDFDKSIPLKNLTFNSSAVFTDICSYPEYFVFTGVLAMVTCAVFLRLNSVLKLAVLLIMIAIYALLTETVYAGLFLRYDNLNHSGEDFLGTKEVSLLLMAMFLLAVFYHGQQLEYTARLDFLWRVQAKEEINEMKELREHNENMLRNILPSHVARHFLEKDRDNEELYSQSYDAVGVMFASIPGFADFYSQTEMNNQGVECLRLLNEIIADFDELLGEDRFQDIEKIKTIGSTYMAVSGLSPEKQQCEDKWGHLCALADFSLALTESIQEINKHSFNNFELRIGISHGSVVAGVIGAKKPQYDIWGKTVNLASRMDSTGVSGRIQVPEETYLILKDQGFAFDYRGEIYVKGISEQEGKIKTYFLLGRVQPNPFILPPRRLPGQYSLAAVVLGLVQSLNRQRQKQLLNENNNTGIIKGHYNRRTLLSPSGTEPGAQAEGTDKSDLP
Experimental: as §1

AC2 = biological target: T9, AC2 (Homo sapiens, UniProt Q08462); assay: cAMP accumulation assay, AC2-HEK Δ3/6 KO cells; format: cell-based
T9 construct: expressed in transfected cells
T9 sequence (Q08462 whole entry): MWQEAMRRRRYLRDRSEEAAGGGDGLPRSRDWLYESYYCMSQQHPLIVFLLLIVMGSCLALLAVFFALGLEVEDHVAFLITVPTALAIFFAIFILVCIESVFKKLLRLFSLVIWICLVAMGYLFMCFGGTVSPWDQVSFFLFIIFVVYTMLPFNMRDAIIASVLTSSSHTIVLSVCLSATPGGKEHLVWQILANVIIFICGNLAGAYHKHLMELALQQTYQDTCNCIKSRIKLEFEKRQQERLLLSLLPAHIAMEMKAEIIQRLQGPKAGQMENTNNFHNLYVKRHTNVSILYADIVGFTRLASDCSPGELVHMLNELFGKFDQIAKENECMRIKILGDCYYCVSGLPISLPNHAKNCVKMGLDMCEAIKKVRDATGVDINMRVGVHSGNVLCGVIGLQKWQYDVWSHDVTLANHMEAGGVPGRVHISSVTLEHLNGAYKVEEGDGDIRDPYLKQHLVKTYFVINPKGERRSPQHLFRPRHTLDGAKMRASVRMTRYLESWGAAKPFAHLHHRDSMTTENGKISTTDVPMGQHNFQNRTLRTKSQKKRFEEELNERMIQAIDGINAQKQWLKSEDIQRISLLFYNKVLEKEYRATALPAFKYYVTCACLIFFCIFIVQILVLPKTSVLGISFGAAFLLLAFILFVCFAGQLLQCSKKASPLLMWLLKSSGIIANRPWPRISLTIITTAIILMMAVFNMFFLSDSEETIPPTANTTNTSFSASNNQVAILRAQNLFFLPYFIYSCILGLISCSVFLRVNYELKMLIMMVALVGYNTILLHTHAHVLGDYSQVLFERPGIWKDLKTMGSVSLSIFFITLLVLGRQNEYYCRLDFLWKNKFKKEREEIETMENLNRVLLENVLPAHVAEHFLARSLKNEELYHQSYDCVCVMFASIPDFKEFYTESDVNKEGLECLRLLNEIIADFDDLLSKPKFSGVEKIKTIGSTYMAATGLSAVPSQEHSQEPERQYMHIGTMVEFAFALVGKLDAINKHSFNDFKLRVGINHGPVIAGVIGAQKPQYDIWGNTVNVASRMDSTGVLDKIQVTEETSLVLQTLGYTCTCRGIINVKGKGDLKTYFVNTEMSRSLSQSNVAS
Experimental: as §1

[3] = Cheng-Prusoff from FP IC50 and Kd, n/i given where none
[4] = CDI analog SAR set, 3 μM A23187, read-out: IC50 (μM) ± SEM AC1

SMILES | viability at 30 min [1] [%] | Ki (AC8-C2b/CaM; [3]) [µM] | Ki ratio (AC8-C2b/AC1) (AC8-C2b/CaM) | Ki (AC8-Nt/CaM; [3]) [µM] | Ki ratio (AC8 NT/AC1) (AC8-Nt/CaM) | IC50 (AC1/CaM PPI) [µM] | IC50 (AC1-C1b/CaM) [µM] | Ki (AC1-C1b/CaM) [µM] | IC50 (AC8/CaM PPI) [µM] | AC1-CaM FP % inhib (AC1-C1b/CaM) [%] | IC50 (AC1; [4]) [µM] | viability at 30 min, 30 μM [2] [%] | IC50 (AC8) [µM] | also measured
Cc1cc2nc3ccc(N(C)C)cc3[s+]c2cc1N [Compound 1, Tolonium Chloride] | 80 | 0.44 | 1.5 | 2.3 | 7.9 | 32.9 ± 1.01 | 1.24 | 0.29 | 8.4 ± 1.19 | – | – | – | – | decrease in cell viability at AC1/CaM IC50 (HEK293T cells): greater than 10%
O=S(=O)(Nc1ccc2c(c1)N(S(=O)(=O)c1ccc(F)cc1)CCC2)c1cccc(F)c1 [Compound 18] | 100 | – | AC1 Selective | – | AC1 Selective | 16.1 ± 1.12 | 38.4 | 9.1 | 5.71 ± 1.22 | 54 | – | – | – | viability at 30 min, 316 µM ([1]; 316 μM, read-out: cell viability at highest concentration tested): 90%; Ki (μM) AC8 C2b (AC8-C2b/CaM; [3]): n/i; inhibition of AC1 activity (efficacy) (AC1; initial characterization of hits, data not shown): ~70%; IC50 (AC1; initial examination, 10,000 cells per well, 3 μM A23187, 1 h RT, read-out: AC1 IC50 ± SEM): 6.7 ± 0.7 µM; chemical shift perturbations (CSP) of 15N-CaM (CaM): modest chemical shift changes; Ki (μM) AC8 NT (AC8-Nt/CaM; [3]): n/i; fold selective for AC8 over AC1 in the NanoBiT assay (AC8/CaM PPI; AC8/CaM vs AC1/CaM NanoBiT): ~3 fold
CCCCC(CC)CNC(=N)NC(=N)NCCCCCCNC(=N)NC(=N)NCC(CC)CCCC (stereo not shown) [Compound 3, Alexidine] | 75 | 2.6 | 3.9 | 1.1 | 1.6 | 17.9 ± 1.15 | 2.8 | 0.67 | 16.5 ± 1.15 | 103 | – | – | – | decrease in cell viability at 100 μM (HEK293T cells; 100 μM): 70%; decrease in cell viability at AC1/CaM IC50 (HEK293T cells): 25%
O=C1c2c(O)ccc(O)c2C(=O)c2c(NCCNCCO)ccc(NCCNCCO)c21 [Compound 11, Mitoxantrone HCl] | 87 | 8.2 | 1.3 | 41.1 | 6.3 | 44 ± 1.15 | 27.5 | 6.5 | 29.8 ± 1.18 | 40 | – | – | – | decrease in cell viability at AC1/CaM IC50 (HEK293T cells): greater than 10%
[H]/N=C(\N/C(=N/[H])NCCCCCCNC(=N)NC(=N)Nc1ccc(Cl)cc1)Nc1ccc(Cl)cc1 [Compound 9, Chlorhexidine HCl] | 80 | 20.8 | 4.0 | 13.8 | 2.7 | 111 ± 1.23 | 22 | 5.2 | 47.1 ± 1.35 | 15 | – | – | – | decrease in cell viability at AC1/CaM IC50 (HEK293T cells): greater than 10%
CCc1cc(C(c2ccccc2)N2CCN(C)CC2)c(NC(=O)c2ccco2)s1 (stereo not shown) [Compound 29] | – | – | – | – | – | – | – | – | – | – | 10.3 ± 1.45 | 65 | 14.4 ± 4.1 | fold reduction in AC1 potency compared to 15 (AC1; matched molecular pair 15): ~2 fold; fold reduction in AC8 potency compared to 15 (AC8; matched molecular pair 15): ~3 fold
CN1CCN(C(c2cccs2)c2c(NC(=O)c3ccco3)sc3c2CCCC3)CC1 (stereo not shown) [Compound 27] | – | – | – | – | – | – | – | – | – | – | 34.8 ± 13 | 48 | 25.6 ± 6.77 | –
CCc1cc(C(Nc2ccccn2)c2cccs2)c(NC(=O)c2ccco2)s1 (stereo not shown) [Compound 33] | – | – | – | – | – | – | – | – | – | – | 3.58 ± 2.26 | 88 | 2.7 ± 1.92 | –
Cc1cc(C(c2cccs2)N2CCC(C)CC2)c(NC(=O)c2ccco2)s1 (stereo not shown) [Compound 23] | – | – | – | – | – | – | – | – | – | – | 3.08 ± 0.25 | 100 | 4.21 ± 1.01 | –
CCN1CCN(C(c2cccs2)c2c(NC(=O)c3ccco3)sc3c2CCCC3)CC1 (stereo not shown) [Compound 28] | – | – | – | – | – | – | – | – | – | – | 20 ± 5.23 | 88 | 11.6 ± 1.82 | fold more potent at AC8 than AC1 (AC8; cAMP accumulation IC50s): 2 fold
CCc1cc(C(c2cccs2)N2CCOCC2)c(NC(=O)c2ccco2)s1 (stereo not shown) [Compound 31] | – | – | – | – | – | – | – | – | – | – | 5.25 ± 1.07 | 37 | 1.49 ± 0.38 | –
Cc1cc(C(c2cccs2)N2CCOCC2)c(NC(=O)c2ccco2)s1 (stereo not shown) [Compound 30] | – | – | – | – | – | – | – | – | – | – | 10.6 ± 2.72 | 100 | 4.99 ± 1.1 | –
O=C(Nc1sc2c(c1C(c1cccs1)N1CCOCC1)CCCC2)c1ccco1 (stereo not shown) [Compound 32] | – | – | – | – | – | – | – | – | – | – | 0.89 ± 0.04 | 100 | 1.86 ± 0.32 | inhibition of AC1 activity (AC1; CDI analog set, maximal inhibition of A23187 response): 100%; % Inhibited at AC2 ± SEM (AC2; 30 μM): 10 ± 8%; inhibition at 30 µM (AC2; read-out: % Inhibited at AC2 ± SEM): < 16%
CCCCCCCCOc1ccccc1C(=O)Nc1ccc(C(=O)OCC[N+](C)(CC)CC)cc1 [Compound 7, Otilonium] | 96 | 10.3 | 2.5 | 6.3 | 1.6 | 18.8 ± 1.16 | 17.1 | 4.1 | 12.8 ± 1.22 | 92 | – | – | – | cell viability reduced at highest concentration tested (HEK293T cells; 316 μM): ~50%

Reference: article PMC9486168, “Protein-protein interaction-based high throughput screening for adenylyl cyclase 1 inhibitors: Design, implementation, and discovery of a novel chemotype” (Frontiers in Pharmacology, 2022)
